Here are results for seven molecules from ChEMBL document CHEMBL5729653, “Substituted pyridotriazine compounds and uses thereof” (2023).

One test in a line: HIV MT-4 Serum Shift Antiviral Reporter Assay: To quantify the amount of protein binding to human serum, compounds were serially diluted (1:3) in DMSO and acoustically transferred onto 384-well assay plates via a Labcyte ECHO robot. Each plate contained up to 8 test compounds, including negative and positive controls, (DMSO, 5 μM AZT respectively). Assay plates were prepared in duplicate, and tested in either CCM (cell culture media) or HS/CCM (human serum/cell culture media). MT-4 cells were first pre-infected with pLai RLuc reporter virus for 2 h at 37° C., then further diluted in either CCM (RPMI media, 10% FBS, 1% P/S) or HS/CCM (RPMI media, 10% FBS, 50% HS, 1% P/S), and subsequently added to each plate using a Biotek Micro Flow dispenser. After a 72-h incubation in a humidified and temperature controlled incubator (37° C.), Renilla Glo (Promega) was added to all assay plates and chemiluminescence read using an Envision plate-reader. EC50 values were defined as the compound concentration that causes a 50% decrease in luminescence signal, and were calculated using a sigmoidal dose-response model to generate curve fits. To determine the amount of protein binding, EC50 fold shifts (or EC50 shifts) were calculated by dividing EC50 (HS/CCM)/EC50 (CCM).
Details: not given
By EC50 is commonly meant the midpoint of the concentration-response curve. Consider `C[C@H]1C=CC2(CCC2)N2CN1C(=O)c1c(O)c(=O)c(C(=O)NCc3c(F)cc(F)cc3F)cn12`, for which the EC50 was 3 nM.

Regarding `C[C@H]1C=C[C@H](C)N2CN1C(=O)c1c(O)c(=O)c(C(=O)NCc3c(F)cc(F)cc3F)cn12`, the EC50 was 1.4 nM. Same read-out and setting: next, `C[C@@H]1CC[C@H](C)N2CN1n1cc(C(=O)NCc3ccc(F)cc3F)c(=O)c(O)c1C2=O`: 1.5 nM; `CO[C@@H]1C=C[C@H](C)N2CN1n1cc(C(=O)NCc3c(F)cc(F)cc3F)c(=O)c(O)c1C2=O`: 1.8 nM. The same measure, in the same setting: the result for `C[C@@H]1C=C[C@H](CF)N2CN1n1cc(C(=O)NCc3ccc(F)cc3F)c(=O)c(O)c1C2=O` reads 1.9 nM.

The same test, now with this note: MT4, 2 h.
Regarding `C[C@@H]1C[C@H](O)[C@H](O)CN2CN1n1cc(C(=O)NCc3ccc(F)cc3F)c(=O)c(O)c1C2=O`, the EC50 is 1.5 nM.

In the case of `CC1=C[C@H](C)N2CN([C@@H]1C)n1cc(C(=O)NCc3ccc(F)cc3F)c(=O)c(O)c1C2=O`, the EC50 is 1.4 nM.
